# Source: US4339427A, “Radioimmunoassay of thymosinα” (Hoffmann-la Roche Inc., priority 1980, dated 1982)
# Where no end group is shown, it is not given here.
# B1: alpha-fetoprotein: oncodevelopmental antigen alpha-fetoprotein (Hoffmann-La Roche Inc.) (protein, UniProt P02771 19-609, looked up)
# Alpha-fetoprotein: RTLHRNEYGIASILDSYQCTAEISLADLATIFFAQFVQEATYKEVSKMVKDALTAIEKPTGDEQSSGCLENQLPAFLEELCHEKEILEKYGHSDCCSQSEEGRHNCFLAHKKPTPASIPLFQVPEPVTSCEAYEEDRETFMNKFIYEIARRHPFLYAPTILLWAARYDKIIPSCCKAENAVECFQTKAATVTKELRESSLLNQHACAVMKNFGTRTFQAITVTKLSQKFTKVNFTEIQKLVLDVAHVHEHCCRGDVLDCLQDGEKIMSYICSQQDTLSNKITECCKLTTLERGQCIIHAENDEKPEGLSPNLNRFLGDRDFNQFSSGEKNIFLASFVHEYSRRHPQLAVSVILRVAKGYQELLEKCFQTENPLECQDKGEEELQKYIQESQALAKRSCGLFQKLGEYYLQNAFLVAYTKKAPQLTSSELMAITRKMAATAATCCQLSEDKLLACGEGAADIIIGHLCIRHEMTPVNPGVGQCCTSSYANRRPCFSSLVVDETYVPPAFSDDKFIFHKDLCQAQGVALQTMKQEFLINLVKQKPQITEEQLEAVIADFSGLLEKCCQGQEQEVCFAEEGQKLISKTRAALGV
# B2: CEA: oncodevelopmental antigen, carcinoembryonic antigen (Hoffmann-La Roche Inc.) (protein, UniProt P06731 35-685, looked up)
# Cell adhesion molecule CEACAM5: KLTIESTPFNVAEGKEVLLLVHNLPQHLFGYSWYKGERVDGNRQIIGYVIGTQQATPGPAYSGREIIYPNASLLIQNIIQNDTGFYTLHVIKSDLVNEEATGQFRVYPELPKPSISSNNSKPVEDKDAVAFTCEPETQDATYLWWVNNQSLPVSPRLQLSNGNRTLTLFNVTRNDTASYKCETQNPVSARRSDSVILNVLYGPDAPTISPLNTSYRSGENLNLSCHAASNPPAQYSWFVNGTFQQSTQELFIPNITVNNSGSYTCQAHNSDTGLNRTTVTTITVYAEPPKPFITSNNSNPVEDEDAVALTCEPEIQNTTYLWWVNNQSLPVSPRLQLSNDNRTLTLLSVTRNDVGPYECGIQNELSVDHSDPVILNVLYGPDDPTISPSYTYYRPGVNLSLSCHAASNPPAQYSWLIDGNIQQHTQELFISNITEKNSGLYTCQANNSASGHSRTTVKTITVSAELPKPSISSNNSKPVEDKDAVAFTCEPEAQNTTYLWWVNGQSLPVSPRLQLSNGNRTLTLFNVTRNDARAYVCGIQNSVSANRSDPVTLDVLYGPDTPIISPPDSSYLSGANLNLSCHSASNPSPQYSWRINGIPQQHTQVLFIAKITPNNNGTYACFVSNLATGRNNSIVKSITVSASGTSPGLSA
# B3: Myoglobin (equine): Myoglobin (equine) (protein, UniProt P68082 2-154, looked up)
# Myoglobin: GLSDGEWQQVLNVWGKVEADIAGHGQEVLIRLFTGHPETLEKFDKFKHLKTEAEMKASEDLKKHGTVVLTALGGILKKKGHHEAELKPLAQSHATKHKIPIKYLEFISDAIIHVLHSKHPGDFGADAQGAMTKALELFRNDIAAKYKELGFQG
# Tested on: rabbit anti-thymosin α1 antiserum
# Assay: radioimmunoassay for thymosin α1 (inhibition of tracer binding / cross-reactivity, double antibody method)
# Details: not given
# Description: a. Preparation of antisera
# Synthetic thymosin α1 was coupled to Keyhole Limpet Hemocyanin (KLH) by means of glutaraldehyde using the following procedure. Equivalent amounts (dry weight) of each protein, thymosin α1 and hemocyanin, were dissolved in 0.25 M NaPO4, pH 7.0 buffer at a concentration of 2 mg/ml. […] The reaction was allowed to continue for 3 hours while being stirred at room temperature. The reaction mixture was diluted in sterile saline to a final concentration of thymosin α1 of 100 μg/ml. The solution of coupled thymosin α1 was aliquoted and stored at -20° C.
# The mixture of products resulting from the cross-linking reactions carried out at room temperature was not fractionated or purified in any way. The thymosin α1 KLH conjugate was diluted with sterile normal saline and stored frozen for immunizations. Rabbits were immunized by administering 100 μg thymosin α1 (as the KLH conjugate) in emulsion with Ereund's Complete Adjuvant at 15-20 intradermal sites on the back of each rabbit according to the method of Vaitukaitis et al., J. Clin. Endoch. […] Weekly boosts of 50 μg thymosin α1 per animal in Freund's Incomplete Adjuvant were also administered at multiple intradermal sites.
# b. Radioiodination of [Tyr^1 ]-thymosin α1
# After a reaction time of 30 seconds at room temperature, the enzyme was inhibited by the addition of […]. […] The tracer was diluted 1:2,000 in immunoassay buffer to provide 4,000-5,000 cpm per assay tube, which is equivalent to less than 1 pg peptide mass per assay tube.
# Separation of free from bound tracer is carried out by the addition of goat anti-rabbit gamma globulin serum, incubation for 1 hour at 37° C. and finally incubation at 4° C. for 16 hours. The immunoprecipitate is pelleted by centrifugation at 2500 rpm for 20 minutes, the supernatant is aspirated and discarded, and the radioactivity in the immunoprecipitate is counted in an automatic gamma spectrometer. The counts per minute for standards and unknowns are corrected for non-specific background and compared to the total counts per minute for the reaction tubes where no competing antigen was introduced.
row,Molecule,cross-reactivity / competition in the RIA (in words)
1,TP.5: TP.5 (Ortho Pharmaceuticals) [reference compound],no cross-reactivity
2,"thymopoietin II fragment 29-41: thymopoietin II fragment 29-41 (Bachem, Inc.) (AGEQRKDVYVQLY; UniProt P42167 29-41, looked up, fragment) [reference compound]",no cross-reactivity
3,B1,do not cross-react
4,B2,do not cross-react

# Same assay, conditions: RIA standard curve
Molecule,ED50 (50% inhibition) of standard curve [pg],operating range for the assay [pg],slope at inflection point (50% inhibition)
"thymosin α1: heat stable, acidic polypeptide composed of 28 amino acid residues (SDAAVDTSSEITTKDLKEKKEVVEEAEN; ends and bridges not checked; UniProt P06454 2-29, looked up)",130 to 160,15 to 800,-1.0

# Same assay, conditions: RIA standard curve; typically
row,Molecule,minimal detectable dose (10% inhibition) [pg]
1,"thymosin α1: heat stable, acidic polypeptide composed of 28 amino acid residues (SDAAVDTSSEITTKDLKEKKEVVEEAEN; ends and bridges not checked; UniProt P06454 2-29, looked up)",8 to 15

# Same assay, conditions: Table 1; 125I-[Tyr1]-thymosin α1 tracer
row,Molecule,ED50 - Amount of protein (ng) required to produce a 50% inhibition in RIA
1,Transferrin (human): Transferrin (human),"> 50,000 ng"
2,"Natural thymosin α1: heat stable, acidic polypeptide composed of 28 amino acid residues, isolated from calf thymus thymosin fraction 5 (SDAAVDTSSEITTKDLKEKKEVVEEAEN; ends and bridges not checked; UniProt P01252 2-29, looked up)",0.45 ng
3,Erythopoietin (human): Erythopoietin (human),"> 160,000 ng"
4,"Synthetic thymosin α1: thymosin α1 obtained by peptide synthesis procedures (SDAAVDTSSEITTKDLKEKKEVVEEAEN; ends and bridges not checked; UniProt P06454 2-29, looked up) [reference compound]",0.40 ng
5,Hemoglobin (human): Hemoglobin (human),"> 200,000 ng"
6,Cytochrome C (equine): Cytochrome C (equine),"> 200,000 ng"
7,TP.5: TP.5 (Ortho Pharmaceuticals) [reference compound],"> 15,000 ng"
8,Fetuin (bovine): Fetuin (bovine),"> 250,000 ng"
9,"RPPGFSPFR [Bradykinin, reference compound]","> 50,000 ng"
10,Insulin (porcine): Insulin (porcine),"> 200,000 ng"
11,Glucagon (porcine): Glucagon (porcine),"> 500,000 ng"
12,Serum albumin (bovine): Serum albumin (bovine),"> 250,000 ng"
13,B3,"50,000 ng"
14,B2,"> 25,000 ng"
